Laboratory results taken from ChEMBL document CHEMBL1138460, “Synthesis of a new opioid ligand having the oxabicyclo[3.2.1]octane skeleton using a new rearrangement reaction” (Bioorg Med Chem Lett, 2009).

Tests used:
[1] = biological target: Kappa-type opioid receptor (Cavia porcellus, UniProt P41144); assay: Displacement of [3H]U69593 from kappa opioid receptor in guinea pig cerebellum; format: tissue-based
[2] = Displacement of [3H]NTI from delta opioid receptor in guinea pig forebrain; parameters: species or system Cavia porcellus
Mu-type opioid receptor = Mu-type opioid receptor (Cavia porcellus, UniProt P97266); assay: Displacement of [3H]DAMGO from mu opioid receptor in guinea pig forebrain
Chain of Mu-type opioid receptor (P97266 whole entry): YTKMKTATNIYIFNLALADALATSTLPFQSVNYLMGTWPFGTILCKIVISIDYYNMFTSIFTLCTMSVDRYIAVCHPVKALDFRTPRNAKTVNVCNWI

[3] = biological target: Opioid receptor (mu and kappa) (Cavia porcellus) (UniProt P41144+P97266); assay: Ratio of Ki for guinea pig mu opioid receptor to Ki for guinea pig kappa opioid receptor
Chain of Opioid receptor (mu and kappa) (Cavia porcellus) (P41144 whole entry, looked up): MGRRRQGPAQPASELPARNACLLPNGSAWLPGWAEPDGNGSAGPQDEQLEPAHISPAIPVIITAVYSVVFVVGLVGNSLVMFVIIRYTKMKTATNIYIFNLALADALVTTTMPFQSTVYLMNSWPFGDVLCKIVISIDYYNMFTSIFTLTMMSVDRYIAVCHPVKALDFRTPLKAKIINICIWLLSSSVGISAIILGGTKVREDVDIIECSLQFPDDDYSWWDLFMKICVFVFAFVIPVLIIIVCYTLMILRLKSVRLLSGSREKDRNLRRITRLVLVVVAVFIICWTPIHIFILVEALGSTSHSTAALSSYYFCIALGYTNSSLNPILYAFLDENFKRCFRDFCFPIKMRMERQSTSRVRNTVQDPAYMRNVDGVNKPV
Chain of Opioid receptor (mu and kappa) (Cavia porcellus) (P97266 whole entry, looked up): as the sequence (P97266 whole entry) above

Chain of Kappa-type opioid receptor (P41144 whole entry): as the sequence (P41144 whole entry, looked up) above

## O=C1C[C@]23CCN(CC4CC4)[C@H](Cc4ccc(O)cc42)[C@]32CC[C@H]1O2
[1]
  Ki: 233 pM
[2]
  Ki: 6840 pM
Mu-type opioid receptor
  Ki: 397 pM
[3]
  Ratio Ki: 1.7

## O=C1CC[C@@]2(O)[C@H]3Cc4ccc(O)c5c4[C@@]2(CCN3CC2CC2)[C@H]1O5 [NALTREXONE]
[2]
  Ki: 20700 pM

## OC[C@]12CC[C@@]3(O1)[C@H]1Cc4ccc(O)cc4[C@@]3(CCN1CC1CC1)C2
[1]
  Ki: 102 pM
[2]
  Ki: 3500 pM
Mu-type opioid receptor
  Ki: 145 pM
[3]
  Ratio Ki: 1.42
